Assay results reported in US8586125B2, “Thermal treatment of an implantable medical device” (Advanced Cardiovascular Systems, Inc., priority 1999, dated 2013).

Key:
[1] = 24 hour elution of vinblastine from EVOH coated stents in phosphated saline solution, HPLC; type: physicochemical; conditions: for Total microgram Released / microgram Release per Hour / microgram Released: Unsterilized stent
Protocol: Multi-Link™ stents were cleaned by placement in an ultrasonic bath of isopropyl alcohol solution for 10 minutes. The stents were dried and plasma cleaned in a plasma chamber. An EVOH solution was made with 1 gram of EVOH and 7 grams of DMSO, making an EVOH:DMSO ratio of 1:7. Vinblastine was added to the 1:7 EVOH:DMSO solution. Vinblastine constituted 2.5% by weight of the total weight of the solution. The solution was vortexed and placed in a tube. The cleaned Multi-Link™ stents were attached to mandrel wires and dipped into the solution. The coated stents were passed over a hot plate, for about 3-5 seconds, with a temperature setting of about 60° C. The coated stents were cured for 6 hours in an air box then placed in a vacuum oven at 60° C. for 24 hours. The above process was repeated twice, having a total of three layers. The average weight of the coating was 0.00005 gram, with an estimated vinblastine concentration of 12 microgram per stent. Some of the stents were sterilized by electron beam radiation. The sterilized and unsterilized vinblastine coated stents were tested for a 24 hour elution period by placing one sterilized and one unsterilized stent in 5 ml of phosphated saline solution (pH 7.4) at room temperature with rotational motion. The amount of vinblastine eluted was evaluated by High Performance Liquid Chromatography (HPLC) analysis. The results of this test are given below and plotted in FIG. 7.

[2] = test system: Medial smooth muscle cells (SMC); experiment: Inhibition of SMC proliferation, thymidine incorporation; type: cell-based; conditions: Rattus norvegicus; 2 hours drug exposure; scrape wounded SMC monolayers, passage 3-4; read-out: IC50 (concentration at which 50% of the cells stop proliferating)
Protocol: Medial smooth muscle cells (SMC) were isolated from rat aorta and cultured according to explant methods known to one of ordinary skill in the art. Cells were harvested via trypsinization and subcultivated. Cells were identified as vascular SMC through their characteristic hill-and-valley growth pattern as well as indirect immunofluorescence with monoclonal anti SMC α-actin. Studies were performed with cells at passage 3-4. SMC monolayers were established on 24 well culture dishes, scrape wounded and treated with actinomycin D, mytomycin and docetaxel. The cells were exposed to the drug solution of different concentrations for 2 hours and then washed with buffered saline solution. The proliferation of the cells was quantified by standard technique of thymidine incorporation.
The IC50 (concentration at which 50% of the cells stop proliferating) of actimomycin D was 10^−9M as compared to 5×10^−5M for mitomycin and 10^−6M for docetaxel.

[3] = Sterilized stent, Time 0.5 Hours
[4] = Sterilized stent, Time 24 Hours

CC[C@]1(O)C[C@@H]2CN(CCc3c([nH]c4ccccc34)[C@@](C(=O)OC)(c3cc4c(cc3OC)N(C)[C@H]3[C@@](O)(C(=O)OC)[C@H](OC(C)=O)[C@]5(CC)C=CCN6CC[C@]43[C@@H]65)C2)C1 [Vinblastine]
μg Release ([1]; Sterilized (electron beam) stent, Time 0 Hours): 0 µg | Total μg Released ([1]; Sterilized stent, Time 0 Hours): 0 µg | μg Release per Hour ([1]; Sterilized stent, Time 0 Hours): 0 μg per Hour | Total μg Released [1, 3]: 2.14 µg | μg Release [1, 3]: 2.14 µg | μg Release per Hour [1, 3]: 4.28 μg per Hour | Total μg Released ([1]; Sterilized stent, Time 3 Hours): 3.84 µg | μg Release ([1]; Sterilized stent, Time 3 Hours): 1.7 µg | μg Release per Hour ([1]; Sterilized stent, Time 3 Hours): 0.68 μg per Hour | Total μg Released ([1]; Sterilized stent, Time 4 Hours): 4.12 µg | μg Release ([1]; Sterilized stent, Time 4 Hours): 0.28 µg | μg Release per Hour ([1]; Sterilized stent, Time 4 Hours): 0.28 μg per Hour | Total μg Released ([1]; Sterilized stent, Time 6 Hours): 4.38 µg | μg Release ([1]; Sterilized stent, Time 6 Hours): 0.26 µg | μg Release per Hour ([1]; Sterilized stent, Time 6 Hours): 0.13 μg per Hour | Total μg Released [1, 4]: 6.43 µg | μg Release [1, 4]: 2.05 µg | μg Release per Hour [1, 4]: 0.11 μg per Hour | Total microgram Released ([1]; Time 0 Hours): 0 microgram | microgram Release per Hour ([1]; Time 0 Hours): 0 microgram per Hour | microgram Released ([1]; Time 0 Hours, pH 7.4, room temperature): 0 microgram | Total microgram Released ([1]; Time 0.5 Hours): 2.12 microgram | microgram Release per Hour ([1]; Time 0.5 Hours): 4.24 microgram per Hour | microgram Released ([1]; Time 0.5 Hours): 2.12 microgram | Total microgram Released ([1]; Time 3 Hours): 4.03 microgram | microgram Release per Hour ([1]; Time 3 Hours): 0.76 microgram per Hour | microgram Released ([1]; Time 3 Hours): 1.91 microgram | Total microgram Released ([1]; Time 4 Hours): 4.30 microgram | microgram Release per Hour ([1]; Time 4 Hours): 0.27 microgram per Hour | microgram Released ([1]; Time 4 Hours): 0.27 microgram | Total microgram Released ([1]; Time 6 Hours): 4.68 microgram | microgram Release per Hour ([1]; Time 6 Hours): 0.19 microgram per Hour | microgram Released ([1]; Time 6 Hours): 0.38 microgram | Total microgram Released ([1]; Time 24 Hours): 6.38 microgram | microgram Release per Hour ([1]; Time 24 Hours): 0.09 microgram per Hour | microgram Released ([1]; Time 24 Hours): 1.7 microgram

CC(=O)O[C@@]12CO[C@@H]1C[C@H](O)[C@@]1(C)C(=O)[C@H](O)C3=C(C)[C@@H](OC(=O)[C@H](O)[C@@H](NC(=O)OC(C)(C)C)c4ccccc4)C[C@@](O)([C@@H](OC(=O)c4ccccc4)[C@H]21)C3(C)C [docetaxel]
IC50 [2]: 1 µM

CO[C@@]12[C@H](COC(N)=O)C3=C(C(=O)C(C)=C(N)C3=O)N1C[C@@H]1N[C@@H]12 [mitomycin]
IC50 [2]: 50 µM
